Assay results: patent US20040186052A1, “Cytomodulating peptides and methods for treating neurological disorders” (priority 2002, published 2004)

How the values were obtained:
[1] = tested on: experimental autoimmune encephalomyelitis (EAE); assay: Acute EAE in Lewis rats, daily clinical scoring; type: in vivo; conditions: intracerebroventricular administration (Table I, FIG. 7)
[2] = tested on: TNFα mRNA; assay: Cytokine mRNA in brain of EAE rats by real-time RT-PCR; type: in vivo, Lewis rats; conditions: brain RNA thirteen days after immunization, RDP58- vs Mannitol-treated, n=9, P<0.05
Protocol: Animals were sacrificed for molecular analysis at post onset day 5. Brains and spinal cords were removed and frozen in liquid nitrogen, then stored at −80° C. until ready for use. The tissues were subsequently homogenized in 700 μl of a guanidinium isothiocyanate solution containing 49 μl β-mercaptoethanol using an Ultraturrax tissue homogenizer (Jahnke and Kunkel, Staufen i. Breisgau, Germany). Total RNA was extracted by using the Absolutely RNA™ RT-PCR Miniprep Kit (Stratagene, La Jolla, USA) and its quality and quantity was determined with the Agilent 2100 Bioanalyzer System (Agilent Technologies, Palo Alto, USA). […]
To measure cytokine mRNA levels, the expression of each gene transcript was analyzed by real-time PCR using the ABI PRISM 7700 Sequence Detection System (TaqMan™, Perkin-Elmer Biosystems, Weiterstadt, Germany). […]
The PCR reaction was performed in a final volume of 25 μl containing 1 μl cDNA, 12.5 μl Master Mix (TaqMan™ Universal PCR Master Mix, Perkin Elmer, Applied Biosystems, Weiterstadt, Germany), 1 μl fluorogenic hybridization probe, […], and 5.5 μl distilled water. […] The mean Ct values for beta-actin and the cytokines were calculated from duplicate reactions. […]

[3] = tested on: NGF-dependent neurons; assay: Apoptosis of NGF-dependent neurons after NGF deprivation (TUNEL); type: cell-based; conditions: media lacking NGF and containing anti-NGF antibody
Protocol: NGF-dependent neurons are maintained in vitro in media containing NGF. The cells are washed and the media containing NGF is replaced with media lacking NGF and containing anti-NGF antibody. One sample is incubated in the presence of RDP-58, the other in the absence of RDP-58. Apoptosis is measured in the two samples, for example, by TUNEL labeling. RDP-58 inhibits neuronal apoptosis in NGF-dependent neurons induced by NGF deprivation.

[4] = Body weight in EAE rats; type: in vivo, Lewis rats; conditions: 50, 15, or 5 mg by icv injection ten days after immunization; % body weight vs starting point
[5] = tested on: neuronal subtypes deprived of trophic support; conditions: cited from earlier work
[6] = in vivo; cited from earlier work
[7] = tested on: relapsing-remitting form of MS; conditions: patients with relapsing-remitting MS; cited from earlier work
[8] = tested on: MS; conditions: in vivo; cited from earlier work
[9] = tested on: hair cell and cochlear neuron; conditions: associated with trauma; cited from earlier work
[10] = tested on: dopaminergic neurons in the substantia nigra; conditions: MPTP model; cited from earlier work
[11] = tested on: ChAT neurons of the nucleus basalis; conditions: following insult with ibotenic acid; cited from earlier work
[12] = rheumatoid arthritis patients; cited from earlier work
[13] = tested on: retinal ganglion cells; conditions: following axotomy of the optic nerve; cited from earlier work
[14] = tested on: primary neurons; conditions: cited from earlier work
[15] = tested on: Parkinson's disease; conditions: direct infusion into the putamen; cited from earlier work

Arg-nL-nL-nL-Arg-nL-nL-nL-Gly-Tyr [RDP58]
disease index [1]: reducing | incidence [1]: reducing | mean clinical scores [1]: reducing | severity [1]: reducing | TNFα mRNA level in brain [2]: significantly reduced | neuronal apoptosis induced by NGF deprivation [3]: inhibits | change in body weight associated with EAE induction [4]: reduces

Oc1ccc(-c2nc(-c3ccncc3)c(-c3ccc(F)cc3)[nH]2)cc1 [SB202190]
survival of neuronal subtypes [5]: promote survival

CN(C)c1ccc(O)c2c1C[C@H]1C[C@H]3[C@H](N(C)C)C(O)=C(C(N)=O)C(=O)[C@@]3(O)C(O)=C1C2=O [minocycline]
penetration of the blood-brain-barrier [6]: limited

glatiramer acetate
disease episodes [7]: reductions

Cc1ccc(=O)n(-c2ccccc2)c1 [Pirfenidone]
progression of MS [8]: slow | symptoms of MS [8]: reduce

CCSCc1ccc2c(c1)c1c3c(c4c5cc(CSCC)ccc5n5c4c1n2[C@H]1C[C@](O)(C(=O)OC)[C@]5(C)O1)CNC3=O [CEP-1347]
functional deficits [9]: reduce | hair cell and cochlear neuron death [9]: prevent | survival of dopaminergic neurons in the substantia nigra [10]: promotes | functional deficits [11]: reduces | survival of ChAT neurons of the nucleus basalis [11]: promotes

Infliximab: anti-TNF monoclonal antibody
demyelinating disease symptoms [12]: correlated with incidences of demyelinating disease symptoms in some patients

C[S+]([O-])c1ccc(-c2nc(-c3ccncc3)c(-c3ccc(F)cc3)[nH]2)cc1 (stereo not shown) [SB203580]
survival of neuronal subtypes [5]: promote survival | retinal ganglion cell death [13]: reduced | NO toxicity [14]: inhibits

B1: GDNF: glial cell line-derived neurotrophic factor (protein, UniProt P39905 78-211, looked up)
Glial cell line-derived …: SPDKQMAVLPRRERNRQAAAANPENSRGKGRRGQRGKNRGCVLTAIHLNVTDLGLGYETKEELIFRYCSGSCDAAETTYDKILKNLSRNRRLVSDKVGQACCRPIAFDDDLSFLDDNLVYHILRKHSAKRCGCI
patients' performance [15]: improve
